Like-named read-outs stand apart in the source and are kept apart here.
Key:
Type in all cases: in vivo
[1] = system: Alopecurus myosuroides (ALOMY); experiment: Pre-emergence herbicidal action against ALOMY; details: scored visually after about 3 weeks, 100% = plants have died
Summary of the method: (§1)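 Herbicide applied to soil before seedling emergence, at 600 l/ha spray volume with 0.5% additive and rates up to 320 g/ha. Evaluation: visual percentage effect, about 3 weeks later, greenhouse-grown pots compared with untreated ones.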

[2] = system: Amaranthus retroflexus (AMARE); experiment: Pre-emergence herbicidal action against AMARE; details: visual scoring after about 3 weeks vs untreated controls
Summary of the method: as §1

Avena fatua (AVEFA) [3] = experiment: Pre-emergence herbicidal action against AVEFA; details: 320 g/ha, visual scoring after about 3 weeks vs untreated controls
Summary of the method: as §1

[4] = system: Digitaria sanguinalis (DIGSA); experiment: Pre-emergence herbicidal action against DIGSA
Summary of the method: as §1

Lolium rigidum (LOLRI) [5] = experiment: Pre-emergence herbicidal action against LOLRI
Summary of the method: as §1

[6] = system: Matricaria inodora (MATIN); experiment: Pre-emergence herbicidal action against MATIN; details: dosage 320 g/ha
Summary of the method: as §1

[7] = system: Pharbitis purpurea (PHBPU); experiment: Pre-emergence herbicidal action against PHBPU
Summary of the method: as §1

[8] = system: Polygonum convolvulus (POLCO); experiment: Pre-emergence herbicidal action against POLCO; details: dosage 320 g/ha
Summary of the method: as §1

Setaria viridis (SETVI) [9] = experiment: Pre-emergence herbicidal action against SETVI
Summary of the method: as §1

[10] = system: Verconica persica (VERPE); experiment: Pre-emergence herbicidal action against VERPE; details: dosage 320 g/ha
Summary of the method: as §1

Viola tricolor (VIOTR) [11] = experiment: Pre-emergence herbicidal action against VIOTR; details: 320 g/ha, Viola tricolor
Summary of the method: as §1

Oryza sativa (ORYSA) [12] = details: pre-emergence, 80 g/ha, crop plant compatibility, in comparison to untreated controls
Summary of the method: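 Scoring: visual, % of untreated control, about 3 weeks after a pre-emergence application to the soil surface. Application used WP or EC formulations diluted in water with 0.5% additive at 600 l/ha; dosage levels are marked by suffixes a, b and c.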

[13] = system: Abutilon theophrasti (ABUTH); experiment: Post-emergence herbicidal action against ABUTH; details: visual rating about 3 weeks after treatment vs untreated controls (100% = plants have died, 0% = like control plants)
Summary of the method: (§2)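 Values are percent visual activity (0% like control, 100% plants dead) after about 3 weeks in the greenhouse. Treatment: post-emergence spray at one-leaf stage, 600 l/ha spray volume, 0.5% additive, doses 320 g/ha or lower.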

[14] = system: Alopecurus myosuroides (ALOMY); experiment: Post-emergence herbicidal action against ALOMY; details: visual rating about 3 weeks after treatment vs untreated controls (100% = plants have died, 0% = like control plants)
Summary of the method: as §2

[15] = system: Amaranthus retroflexus (AMARE); experiment: Post-emergence herbicidal action against AMARE; details: 80 g/ha, visual rating about 3 weeks after treatment vs untreated controls (100% = plants have died, 0% = like control plants)
Summary of the method: as §2

Avena fatua (AVEFA) [16] = experiment: Post-emergence herbicidal action against AVEFA; details: visual rating about 3 weeks after treatment
Summary of the method: as §2

[17] = system: Digitaria sanguinalis (DIGSA); experiment: Post-emergence herbicidal action against DIGSA; details: visual rating about 3 weeks after treatment
Summary of the method: as §2

[18] = system: Echinochloa crus-galli (ECHCG); experiment: Post-emergence herbicidal action against ECHCG
Summary of the method: as §2

[19] = system: Matricaria inodora (MATIN); experiment: Post-emergence herbicidal action against MATIN; details: dosage 80 g/ha
Summary of the method: as §2

[20] = system: Pharbitis purpurea (PHBPU); experiment: Post-emergence herbicidal action against PHBPU
Summary of the method: as §2

Setaria viridis (SETVI) [21] = experiment: Post-emergence herbicidal action against SETVI
Summary of the method: as §2

[22] = system: Verconica persica (VERPE); experiment: Post-emergence herbicidal action against VERPE
Summary of the method: as §2

Viola tricolor (VIOTR) [23] = experiment: Post-emergence herbicidal action against VIOTR; details: 80 g/ha
Summary of the method: as §2

Oryza sativa (ORYSA) [24] = details: crop plant compatibility
Summary of the method: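 Percent effect on the crop was judged by eye against untreated controls, where 0% means like control and 100% means dead plants. Plants had been sprayed post-emergence at the one-leaf stage and then kept under optimum greenhouse conditions for about 3 weeks.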

[25] = system: Echinochloa crus-galli (ECHCG); experiment: Pre-emergence herbicidal action against ECHCG; details: dosage 320 g/ha
Summary of the method: as §1

Lolium rigidum (LOLRI) [26] = experiment: Post-emergence herbicidal action against LOLRI; details: dosage 320 g/ha
Summary of the method: as §2

[27] = system: Polygonum convolvulus (POLCO); experiment: Post-emergence herbicidal action against POLCO; details: dosage 80 g/ha
Summary of the method: as §2

[28] = 80 g/ha, visual scoring after about 3 weeks vs untreated controls
[29] = 20 g/ha, effect vs untreated controls
[30] = 80 g/ha, effect in comparison to untreated controls

`COC(=O)CNC(=O)COc1nn(-c2ccccn2)c(-c2ccc(F)nc2)c1Br` [Example I-97] was tested, and the “Pre-emergence action against ALOMY” value ([1]; 80 g/ha) was 90%, the “Pre-emergence action against ALOMY” value ([1]; 320 g/ha) was 100% and the “Pre-emergence action against AMARE in %” value ([2]; 80 g/ha) was 90%. The “Pre-emergence action against AMARE in %” value ([2]; 320 g/ha) was 100%, the “Pre-emergence action against AVEFA in %” value (Avena fatua (AVEFA) [3]) was 80% and the “Pre-emergence action against DIGSA in %” value [4, 28] was 100%. The “Pre-emergence action against DIGSA in %” value ([4]; dosage 320 g/ha) was 100%, the “Pre-emergence action against LOLRI in %” value (Lolium rigidum (LOLRI) [5]; dosage 80 g/ha) was 80% and the “Pre-emergence action against LOLRI in %” value (Lolium rigidum (LOLRI) [5]; dosage 320 g/ha) was 100%. For the same compound, the “Pre-emergence action against MATIN in %” value [6] was 80%, the “Pre-emergence action against PHBPU in %” value ([7]; dosage 320 g/ha) was 90% and the “Pre-emergence action against POLCO in %” value [8] was 90%. For the same compound, the “Pre-emergence action against SETVI in %” value (Setaria viridis (SETVI) [9]; dosage 80 g/ha) was 80%, the “Pre-emergence action against SETVI in %” value (Setaria viridis (SETVI) [9]; dosage 320 g/ha) was 100% and the “Pre-emergence action against VERPE in %” value [10] was 90%. For the same compound, the “Pre-emergence action against VIOTR in %” value (Viola tricolor (VIOTR) [11]) was 100%, the “Pre-emergence action against ORYSA in %” value (Oryza sativa (ORYSA) [12]) was 10% and the “Post-emergence action against ABUTH in %” value ([13]; 80 g/ha) was 90%. The “Post-emergence action against ALOMY in %” value ([14]; 80 g/ha) was 90%, the “Post-emergence action against AMARE in %” value [15] was 90% and the “Post-emergence action against AVEFA in %” value (Avena fatua (AVEFA) [16]; 80 g/ha) was 80%. For the same compound, the “Post-emergence action against DIGSA in %” value ([17]; 80 g/ha) was 80%, the “Post-emergence action against ECHCG in %” value ([18]; dosage 80 g/ha) was 80% and the “Post-emergence action against MATIN in %” value [19] was 80%. For the same compound, the “Post-emergence action against PHBPU in %” value ([20]; dosage 80 g/ha) was 80%, the “Post-emergence action against SETVI in %” value (Setaria viridis (SETVI) [21]; dosage 80 g/ha) was 80% and the “Post-emergence action against VERPE in %” value ([22]; dosage 80 g/ha) was 90%. The “Post-emergence action against VIOTR in %” value (Viola tricolor (VIOTR) [23]) was 80%, the “Post-emergence action against ORYSA in %” value (Oryza sativa (ORYSA) [24]; [29]) was 0% and the “Post-emergence action against ORYSA in %” value (Oryza sativa (ORYSA) [24]; [30]) was 10%.
With `C#CCOC(=O)COc1nn(-c2ccccn2)c(-c2ccc(F)nc2)c1Br` [Example I-360] the “Pre-emergence action against ALOMY” value ([1]; 80 g/ha) was 100%, the “Pre-emergence action against ALOMY” value ([1]; 320 g/ha) was 100% and the “Pre-emergence action against AMARE in %” value ([2]; 80 g/ha) was 90%. For the same compound, the “Pre-emergence action against AMARE in %” value ([2]; 320 g/ha) was 100%, the “Pre-emergence action against AVEFA in %” value (Avena fatua (AVEFA) [3]) was 90% and the “Pre-emergence action against DIGSA in %” value [4, 28] was 90%. The “Pre-emergence action against DIGSA in %” value ([4]; dosage 320 g/ha) was 100%, the “Pre-emergence action against ECHCG in %” value [25] was 100% and the “Pre-emergence action against LOLRI in %” value (Lolium rigidum (LOLRI) [5]; dosage 320 g/ha) was 100%. The “Pre-emergence action against MATIN in %” value [6] was 90%, the “Pre-emergence action against PHBPU in %” value ([7]; dosage 80 g/ha) was 80% and the “Pre-emergence action against PHBPU in %” value ([7]; dosage 320 g/ha) was 90%. The “Pre-emergence action against POLCO in %” value [8] was 100%, the “Pre-emergence action against SETVI in %” value (Setaria viridis (SETVI) [9]; dosage 80 g/ha) was 90% and the “Pre-emergence action against SETVI in %” value (Setaria viridis (SETVI) [9]; dosage 320 g/ha) was 100%. For the same compound, the “Pre-emergence action against VERPE in %” value [10] was 90%, the “Pre-emergence action against VIOTR in %” value (Viola tricolor (VIOTR) [11]) was 100% and the “Pre-emergence action against ORYSA in %” value (Oryza sativa (ORYSA) [12]) was 10%. The “Post-emergence action against ABUTH in %” value ([13]; 320 g/ha) was 80%, the “Post-emergence action against ALOMY in %” value ([14]; 80 g/ha) was 90% and the “Post-emergence action against ALOMY in %” value ([14]; 320 g/ha) was 90%. The “Post-emergence action against AVEFA in %” value (Avena fatua (AVEFA) [16]; 320 g/ha) was 80%, the “Post-emergence action against DIGSA in %” value ([17]; 80 g/ha) was 80% and the “Post-emergence action against DIGSA in %” value ([17]; 320 g/ha) was 80%. For the same compound, the “Post-emergence action against ECHCG in %” value ([18]; dosage 80 g/ha) was 80%, the “Post-emergence action against ECHCG in %” value ([18]; dosage 320 g/ha) was 80% and the “Post-emergence action against LOLRI in %” value (Lolium rigidum (LOLRI) [26]) was 90%. For the same compound, the “Post-emergence action against PHBPU in %” value ([20]; dosage 80 g/ha) was 80%, the “Post-emergence action against PHBPU in %” value ([20]; dosage 320 g/ha) was 80% and the “Post-emergence action against SETVI in %” value (Setaria viridis (SETVI) [21]; dosage 80 g/ha) was 80%. For the same compound, the “Post-emergence action against SETVI in %” value (Setaria viridis (SETVI) [21]; dosage 320 g/ha) was 80%, the “Post-emergence action against VERPE in %” value ([22]; 320 g/ha, VERPE) was 80% and the “Post-emergence action against VERPE in %” value ([22]; dosage 80 g/ha) was 80%. The “Post-emergence action against ORYSA in %” value (Oryza sativa (ORYSA) [24]; [30]) was 20%.
With `CCOC(=O)COc1nn(-c2ccccn2)c(-c2ccc(F)nc2)c1I` [Example I-121] the “Pre-emergence action against ALOMY” value ([1]; 320 g/ha) was 100%, the “Pre-emergence action against AMARE in %” value ([2]; 80 g/ha) was 100% and the “Pre-emergence action against AMARE in %” value ([2]; 320 g/ha) was 100%. For the same compound, the “Pre-emergence action against AVEFA in %” value (Avena fatua (AVEFA) [3]) was 90%, the “Pre-emergence action against DIGSA in %” value [4, 28] was 100% and the “Pre-emergence action against DIGSA in %” value ([4]; dosage 320 g/ha) was 100%. For the same compound, the “Pre-emergence action against ECHCG in %” value [25] was 100%, the “Pre-emergence action against LOLRI in %” value (Lolium rigidum (LOLRI) [5]; dosage 320 g/ha) was 100% and the “Pre-emergence action against MATIN in %” value [6] was 80%. For the same compound, the “Pre-emergence action against POLCO in %” value [8] was 100%, the “Pre-emergence action against SETVI in %” value (Setaria viridis (SETVI) [9]; dosage 320 g/ha) was 100% and the “Pre-emergence action against VERPE in %” value [10] was 100%. The “Pre-emergence action against VIOTR in %” value (Viola tricolor (VIOTR) [11]) was 100%, the “Pre-emergence action against ORYSA in %” value (Oryza sativa (ORYSA) [12]) was 0% and the “Post-emergence action against ALOMY in %” value ([14]; 80 g/ha) was 80%. For the same compound, the “Post-emergence action against DIGSA in %” value ([17]; 80 g/ha) was 80%, the “Post-emergence action against ECHCG in %” value ([18]; dosage 80 g/ha) was 80% and the “Post-emergence action against POLCO in %” value [27] was 80%. The “Post-emergence action against VERPE in %” value ([22]; dosage 80 g/ha) was 80%, the “Post-emergence action against VIOTR in %” value (Viola tricolor (VIOTR) [23]) was 80% and the “Post-emergence action against ORYSA in %” value (Oryza sativa (ORYSA) [24]; [29]) was 0%. The “Post-emergence action against ORYSA in %” value (Oryza sativa (ORYSA) [24]; [30]) was 0%.

Reference: patent US20240041042A1, “1-(PYRIDYL)-5-AZINYLPYRAZOLE DERIVATIVES, AND THEIR USE FOR CONTROL OF UNDESIRED PLANT GROWTH” (Bayer Aktiengesellschaft, priority 2020, published 2024)
